This note sets out measurements from patent publication US9403800B2, “Compounds for inhibition of cancer cell proliferation” (ChemRegen, Inc., priority 2012, dated 2016).

Data set [1] concerns SW480 colorectal cancer model cell line. The experiment in a line: SW480 cell proliferation and cell cycle (InCell 1000). Type of data set: cell-based, human. The source says:
Previous studies have shown that the Wnt signaling pathway drives cellular proliferation of a number of cancers through up-regulation of genes for several proteins crucial for cell division including Cyclin D1, c-Myc, etc. and treatment of cancer cells with 1 or analogs decreases cellular proliferation. Accordingly, we examined the effect of 1 and analogs on cell proliferation of human cancer cell lines. […] The results were confirmed by studying the effects of 1 on SW480 human colon cell cycle determined by cell images captured by InCell 1000.

The next data set relates to HEK-293T cells. Briefly: cytotoxicity by leakage of G6PDH, HEK-293T. The format is cell-based.

As to `O=C1CCCN1c1ccc(S(=O)(=O)N2CCCc3ccccc32)cc1` [Compound 1, 1-(4-(3,4-dihydroquinolin-1(2H)-ylsulfonyl)phenyl)pyrrolidin-2-one], the Ki67 protein levels result in data set [1] (SW480 cells) is “elevated”. In addition, the cell cycle distribution result in data set [1] (SW480 cells, InCell 1000 images) is “significantly more cells in G2 and less in G1/S phases”. The “cancer cell proliferation (in words)” value in data set [1] (SW480 colon cancer cell line) was “significantly inhibited cancer cell proliferation”. Further, the “cytotoxicity (leakage of G6PDH)” value in the data set on HEK-293T cells is “not cytotoxic”.
